Test results as given in the NIST ThermoML archive (doi:10.1021/je200830j).

Experiments:
[1] = xn = mol fraction of the nth substance listed; settings: 101 kPa, Liquid, Capillary tube (Ostwald / Ubbelohde) method
[2] = 101.33 kPa, Liquid; for mass density: Vibrating tube method; for viscosity: Vibrating wire viscometry

CCCCCCCCCCCCCC[P+](CCCCCC)(CCCCCC)CCCCCC.N#C[N-]C#N [tetradecyl(trihexyl)phosphonium dicyanamide] + O
[1]
Settings	viscosity [mPa·s]
298.17 K, x2 = 0.275	372.8
298.17 K, x2 = 0.4	362.7
303.11 K, x2 = 0.198	284.53
303.13 K, x2 = 0.275	282.44
308.09 K, x2 = 0.275	217.15
317.92 K, x2 = 0.198	135.23

CCCCCCCCCCCCCC[P+](CCCCCC)(CCCCCC)CCCCCC.N#C[N-]C#N [tetradecyl(trihexyl)phosphonium dicyanamide]
[2]
Settings	mass density [kg/m3]	viscosity [mPa·s]
290.66 K	902.3	–
293.14 K	–	505.9
293.15 K	900.9	–
293.16 K	900.9	–
295.65 K	899.5	–
295.66 K	899.5	–
298.15 K	898	–
298.16 K	898	–
298.2 K	–	378
300.65 K	896.6	–
300.66 K	896.6	–
303.15 K	895.1	–
303.16 K	895.1	–
303.18 K	–	288
305.65 K	893.7	–
308.15 K	892.3	–
308.16 K	892.3	–
308.2 K	–	219.9
310.65 K	890.9	–
310.66 K	890.9	–
313.15 K	889.5	–
313.16 K	889.5	–
313.18 K	–	171.1
315.65 K	888.1	–
318.15 K	886.7	–
318.19 K	–	134.4
320.65 K	885.3	–
